# Values of other authors, collected in patent US9173403B2, “Parasiticidal compositions comprising multiple active agents, methods and uses thereof” (MERIAL, INC., priority 2010, dated 2015).
# Conditions: beagle dogs; spot-on administration; 14C radiolabeled drug
smiles,measurement,value
"N#Cc1nn(-c2c(Cl)cc(C(F)(F)F)cc2Cl)c(N)c1[S+]([O-])C(F)(F)F (stereo not shown) [fipronil, 5-amino-3-cyano-1-(2,6-dichloro-4-trifluoromethylphenyl)-4-trifluoromethylsulfinylpyrazole]",time persistently detected in the whole skin after treatment,up to 56 days
